# Experimental data: US6429291B1, “Hyaluronan receptor protein” (priority 1994, dated 2002)
# “Also recorded” adds a separate entry of the source.
# Assays:
# C3 fibroblasts [1] = experiment: Cell locomotion assay, timelapse image analysis of C3 fibroblasts; assay type: cell-based, murine; conditions: 70% confluent C3, 2 h
# Experimental: For motility experiments, 10^5 cells were subcultured into 25 cm^2 tissue culture flasks (Corning), and maintained for 12 h as above. The medium was then aspirated, cells were rinsed with Hanks Balanced Salt Solution (HBSS) (Gibco) and fresh, serum-free α-MEM containing 4.0 μg/ml transferrin (Gibco) and 2.0 μg/ml insulin (Sigma) (defined medium) was added to the flasks.
# Cell locomotion was recorded using a computerized timelapse analysis system (Image 1, Universal Imaging Corporation, Westchester, Pa.) that measures nuclear displacement. During the filming period, cells were maintained at 37° C. in defined-media at physiological pH.
# A 10 amino acid peptide corresponding to one of the HA binding domains of RHAMM, peptide^aa423-432 (Yang et al., 1993), was synthesised and added at various concentrations (0,0.1, 1.0, 5.0, 10.0 and 50.0 ng/ml) to 70% confluent C3 fibroblasts. Cell locomotion was monitored by image analysis for 2 h from the addition of the peptide. A scrambled peptide was used as control.
# RHAMM-GST fusion protein prepared and purified as described in (b) above was added at concentrations of 1 pg/ml, 1 ng/ml, 1 μg/ml and 1 mg/ml to 70% confluent C3 cultures and cell locomotion was monitored by image analysis for 2 h from protein addition as described in Example 5.
# For each experiment, 30 cells were tracked every 10 min for a 1 hr period.
# RHAMM-GST fusion protein, as described in (d) above, and deleted/mutated RHAMM-GST fusion protein, as described in (h) above were added at 5 ng/ml to subconfluent cultures of C3 cells and cell locomotion was monitored by image analysis for 2 h from protein addition as described in Example 5.
# [2] = test system: human breast cancer cell lines; experiment: Locomotion of human breast cancer cell lines (timelapse image analysis); assay type: cell-based; conditions: R3 5 μg/ml; peptide I 2 μg/ml; P<0.001
# Experimental: Cells were cultured as described above. For cell locomotion studies, aliquots of 10^5 cells were added to a 25 cm^2 tissue culture flask (Corning). After 24 hours of growth, cells were washed with calcium and magnesium free Hank's balanced salt solution (HBSS) (Gibco BRL), the defined serum-free media (DM), DMEM supplied with 4.0 μg/ml transferrin (Human, Gibco BRL), 0.5 U/ml Lente insulin (beef and pork, Connaught Novo Ltd., Willowdale, Ontario) and 20 mM Hepes, PH 7.2, was added to the flasks. Twelve hours later, cell locomotion was recorded by using a computerized timelapse image analysis system (Image-1, Universal Image Corporation, Westchester, Pa.) which quantitates nuclear displacement Antibody—R3 (5 μg/ml), peptide I (2 μg/ml), control rabbit IgG (5 μg/ml) or scrambled peptide I (2 μg/ml) were added to media 20 min before the beginning of filming. Images were taken with a Zeiss inverted microscope (model IM35, Zeiss) using a 10× objective every 30 min for 3 hours. A minimum of 30 cells were tracked in each above experimental condition; experiments done in triplicate.
# Human neutrophils = experiment: Neutrophil chemotaxis to IL-8 (modified Boyden chamber); assay type: cell-based; conditions: 100 ng/ml IL-8
# Experimental: Human neutrophils were obtained from peripheral blood samples of normal volunteers and mixed in ACD solution (0.085 M trisodium citrate, 0.065 M citric acid, 2% dextrose) to prevent clotting. Five percent dextran was added and the separated plasma and white blood cells were removed. The cells were washed twice in PBS, pH 7.2 and a Ficoll gradient was used to separate the lymphocytes. The isolated neutrophils were then washed and resuspended in PBS. Red cells were lysed by brief exposure to hypotonic PBS.
# (§1) Chemotaxis was stimulated using either bacterial endotoxin-activated mouse serum (AS), prepared according to Stevenson et al. (1981) for macrophages and macrophage cell lines, or 100 ng/ml interleukin-8 (IL-8) for neutrophils. Heat-inactivated serum (56° C. for 20 mintes) or medium served as negative controls respectively. The chemotactic assay used was a colorometric assay described in Shi et al., (1993). […] The number of displaced cells was quantified by the addition of 3-(4.5-dimethylthiazol-2-yl)-2,5-[…] tetrazolium bromide (MTT) to a final concentration of 250 μg/ml that was incubated at 37° C. for 4 hours. […] The plate was analysed within 2 hours on a microtiter plate ELISA reader with a filter of 540 nm. […]
# macrophage cell line S1 = experiment: Macrophage chemotaxis to endotoxin-activated mouse serum, S1; assay type: cell-based
# Experimental: (§2) The macrophage cell lines S1 and WEHI-3 (Branch et al., 1989) were used to analyze the effect of antibodies and synthetic peptide on macrophage chemotaxis to endotoxin-activated mouse serum (AS). These cells lines were also maintained in DME with 10% FCS and 20 mM Hepes buffer, pH 7.2 at 37° C. and 5% CO2 in air.
# as §1, with “(1993). Briefly, a 96-well chemotaxis chamber with a lower recess large enough to hold a microtiter plate (Neuro Probe, stock#MBA96) and a 5 μm framed filter (Neuro Probe, stock#PFD5/A) were used. The microtiter plate was filled with chemoattractants and controls and placed in the recess of the chemotaxis chamber.” for “(1993).”
# [3] = test system: macrophage cell line WEHI-3; experiment: Macrophage chemotaxis to endotoxin-activated mouse serum, WEHI-3; assay type: cell-based
# Experimental: as §2
# as §1, with “(1993). Briefly, a 96-well chemotaxis chamber with a lower recess large enough to hold a microtiter plate (Neuro Probe, stock#MBA96) and a 5 μm framed filter (Neuro Probe, stock#PFD5/A) were used. The microtiter plate was filled with chemoattractants and controls and placed in the recess of the chemotaxis chamber.” for “(1993).”
# smooth muscle cells = experiment: Smooth muscle cell migration after wounding of monolayers; assay type: cell-based, bovine; conditions: peptides 2 μg/ml
# Experimental: Smooth muscle cells were isolated from bovine aorta as described previously from rat aorta (Majack et al., 1984) and were maintained in Dulbecco's Modified Eagles medium (DME) supplemented with 10% fetal calf serum (FCS) and 20 mM HEPES buffer, pH 7.2 at 37° C. and 5% CO2 in air. All experiments were performed using defined medium [DME with 20 mM HEPES buffer, pH 7.2, 0.5 U/ml insulin (beef and pork zinc suspension, Novo Laboratories Ltd., Willowdale, Ontario) and 4 μg/ml transferrin (Sigma Chemical Co., St. Louis, Mo.)], and the culture medium was replaced 24 hours before filming. Wounding injury to confluent monolayers consisted of removal of half the monolayer using a cell lifter followed by the addition of fresh defined medium in the presence of either RHAMM peptide aa401-411 or the scrambled peptide of the same domain as described above.
# The HA-binding region of RHAMM consists of two 10 amino acid domains located close to the carboxy terminus of the protein (Yang, 1993). A peptide mimicking Domain 1 (amino acids 401-411)—YKQKIKHVVKLK—and a scrambled peptide consisting of the same amino acids arranged in a random manner—YLKQKKVKKHIV—were synthesized. Both peptides were used at a final concentration of 2 μg/ml in locomotion assays.
# Injured cell monolayers were monitored for motility using an IM 35 Zeiss inverted microscope to which a video camera (Hamamatsu CCD, Inc., Japan) was attached. The cells were maintained at 37° C. using a heated platform (TRZ 3700, Zeiss, Germany). Cell locomotion was followed by using image analysis (Image 1, Universal Imaging Corp., Westchester, Pa. This program allows quantification of nuclear displacement from a sequence of digitalized images. The motility of thirty cells in each experiment was followed for a period of 24 hours with mean velocities calculated every hour.
# C3 fibroblasts [4] = experiment: Focal adhesion formation (vinculin immunofluorescence) and cell spreading of C3 fibroblasts; assay type: cell-based, murine; conditions: for cells with focal adhesion staining (vinculin plaque-positive cells): 100 ng/mL
# Experimental: The ras-transformed 10T½ cells termed C3 (Egan et al., 1987) were grown on fibronectin coated glass coverslips for 24 hrs. The cells were then exposed to RHAMM I-2a (1 ng/ml to 1 mg/ml) for 2 hrs at 37° C. before fixing with 3% paraformaldehyde/phosphate buffered saline (PBS). Cells were then washed three times with 10% fetal calf serum PBs, permeabilized with 0.2% triton X-100/PBS for 3 min, and washed again. The coverslips were then incubated with anti-vinculin (Sigma, 1:75 dilution) or an identical concentration of nonspecific mouse IgG for 1 hr at 37° C. After washing, the coverslips were incubated with rhodamine labelled goat anti-mouse antibody (1:200, Sigma) for 2 hrs at room temperature. After further washings, the coverslips were mounted on glass slides and viewed on a Zeiss Axiovert 35 M fluorescent microscope.
molecule,measurement,setting,value
"peptide^aa423-432: 10 amino acid peptide corresponding to one of the HA binding domains of RHAMM (KEVELEKHIA; UniProt Q00547 423-432, looked up, fragment)",concentration at which cell locomotion was significantly inhibited,C3 fibroblasts [1],≥ 5 ng/mL
YKQKIKHVVKLK [peptide aa^401-411],effect on locomotion of all cell lines,[2],reduced significantly
same,effect on neutrophil chemotaxis to IL-8,Human neutrophils,completely inhibited; also recorded: significantly inhibited
same,effect on chemotaxis to endotoxin-activated mouse serum,macrophage cell line S1,inhibited
same,effect on chemotaxis to endotoxin-activated mouse serum,[3],inhibited
same,effect on rate of translocation of smooth muscle cells after wounding,smooth muscle cells,significantly reduced the rate of translocation
same,effect on rate of translocation of smooth muscle cells after wounding,smooth muscle cells; listed as Peptide aa^401-411,significantly inhibited the rate of translocation
"YLKQKKVKKHIV [scrambled peptide, same amino acids as peptide aa401-411 arranged in a random manner, reference compound]",effect on rate of translocation of smooth muscle cells after wounding,smooth muscle cells,no effect on the wounding response
RHAMM I-2a-GST fusion protein: GST fusion protein of the secreted RHAMM isoform I-2a (with alternatively spliced exon 2A) (protein) MRALSLELMKLRNKRETKMRSMMVKQEGMELKLQATQKDLTESKGKIVQLEGKLVSIEKEKIDEKCETEKLLEYIQEISCASDQVEKCKVDIAQLEEDLKEKDREILSLKQSLEENITFSKQIEDLTVKCQLLETERDNLVSKDRERAETLSAEMQILTERLALERQEYEKLQQKELQSQSLLQQEKELSARLQQQLCSFQEEMTSEKNVFKEELKLALAELDAVQQKEEQSERLVKQLEEERKSTAEQLTRLDNLLREKEVELEKHIAAHAQAILIAQEKYNDTAQSLRDVTAQLESVQEKYNDTAQSLRDVTAQLESEQEKYNDTAQSLRDVTAQLESEQEKYNDTAQSLRDVTAQLESVQEKYNDTAQSLRDVTAQLESYKSSTLKEIEDLKLENLTLQEKVAMAEKSVEDVQQQILTAESTNQEYARMVQDLQNRSTLKEEEIKEITSSFLEKITDLKNQLRQQDEDFRKQLEEKGKRTAEKENVMTELTMEINKWRLLYDELYEKTKPFQQQLDAFEAEKQALLNEHGATQEQLNKIRDSYAQLLGHQNLKQKIKHVVKLKDENSQLKSEVSKLRSQLVKRKQNELRLQGELDKALGIRHFDPSKAFCHASKENFTPLKEGNPNCC,cells being vinculin plaque positive,"C3 fibroblasts [4]; 1 ng/mL, 2 hrs",75%
same,cells with focal adhesion staining (vinculin plaque-positive cells),C3 fibroblasts [4]; 2 hrs,< 50%
same,cells with focal adhesion staining (vinculin plaque-positive cells),"C3 fibroblasts [4]; 2 hrs, listed as RHAMM I-2a",> 50%
same,vinculin plaque-positive cells,"C3 fibroblasts [4]; 1 mg/mL, 2 hrs",> 50%
same,effect on cell morphology,"C3 fibroblasts [4]; various concentrations for 2 hours, data not shown",stimulate cell spreading
